Experimental data from ChEMBL document CHEMBL1155039, “Synthetic antimicrobial peptidomimetics with therapeutic potential” (J Med Chem, 2008).
In brackets after ≈: the same amount, converted by molar mass. Several values for one entry are separate records, joined by “and”; a condition that tells them apart may be missing. Equal entries are not always repeated. Activity calls are given as the source filed them. The rule behind the calls is not given here.

Assays:
Escherichia coli [1] = experiment: Effect on inner membrane destabilization in Escherichia coli ML-35p at 256 ug/mL; format: functional, organism-based
Escherichia coli [2] = experiment: Effect on outer membrane destabilization in Escherichia coli ML-35p at 128 ug/mL; format: functional, organism-based
Plasma = experiment: Stability assessed as degradation in human plasma upto 4 days; format: ADME, cell-free; conditions: 96 h
Staphylococcus aureus [3] = experiment: Antibacterial activity against glycopeptide intermediate-resistant Staphylococcus aureus CCUG 43316; format: functional
[4] = Stability assessed as half life in human plasma; format: ADME, cell-free
Escherichia coli [5] = experiment: Antibacterial activity against Escherichia coli ATCC 25922; format: functional
Pseudomonas aeruginosa = experiment: Antibacterial activity against Pseudomonas aeruginosa ATCC 27853; format: functional
[6] = Effect on permeability assessed as calcein release from 1-palmitoyl-2-oleoyl-sn-glycero-3-phosphoglycerol vesicle; format: physicochemical
[7] = Toxicity in human erythrocytes assessed as hemolysis; format: cell-based, Erythrocyte
Staphylococcus aureus [8] = experiment: Antibacterial activity against Staphylococcus aureus ATCC 25923 at 8 times MIC after 30 mins; format: functional
[9] = test system: Staphylococcus epidermidis; experiment: Antibacterial activity against methicillin-resistant Staphylococcus epidermidis ATCC 27626; format: functional
Staphylococcus aureus [10] = experiment: Antibacterial activity against Staphylococcus aureus ATCC 25923; format: functional
Staphylococcus aureus [11] = experiment: Antibacterial activity against methicillin-resistant Staphylococcus aureus ATCC 33591; format: functional
Escherichia coli [12] = experiment: Antibacterial activity against Escherichia coli ML-35p; format: functional
Escherichia coli [13] = experiment: Antibacterial activity against Escherichia coli ATCC 25922 upto 150 ug/mL; format: functional, organism-based
[14] = Toxicity in human erythrocytes assessed as hemolysis upto 1000 ug/mL; format: cell-based; conditions: erythrocyte

SMILES	Activity (Escherichia coli [1])	Activity (Escherichia coli [2])	Activity (Plasma)	MIC (Staphylococcus aureus [3])	half-life [4]	MIC (Escherichia coli [5])	MIC (Pseudomonas aeruginosa)	Activity [6]	EC50 [7]	CFU/ml (Staphylococcus aureus [8])	MIC [9]	MIC (Staphylococcus aureus [10])	MIC (Staphylococcus aureus [11])	MIC (Escherichia coli [12])	Activity (Escherichia coli [13])	Activity [14]
COC(=O)[C@H](CCCNC(=N)N)NC(=O)[C@H](Cc1c(C(C)(C)C)[nH]c2c(C(C)(C)C)cc(C(C)(C)C)cc12)NC(=O)[C@@H](N)CCCNC(=N)N	Active	Active	Stable	11 µM (≈ 7.69 µg/mL)	2 h	29 µM (≈ 20.3 µg/mL)	21 µM (≈ 14.7 µg/mL)	Dose-dependent effect	1010 µM	10000	1 µg/mL and 1.4 µM	7.2 µM (≈ 5.03 µg/mL)	3.6 µM (≈ 2.52 µg/mL)	32 µg/mL (≈ 45.8 µM)		
COC(=O)[C@H](CCCNC(=N)N)NC(=O)[C@@H](N)Cc1c(C(C)(C)C)[nH]c2c(C(C)(C)C)cc(C(C)(C)C)cc12				14 µM (≈ 7.6 µg/mL)		55 µM (≈ 29.9 µg/mL)	55 µM (≈ 29.9 µg/mL)		451 µM		4.6 µM (≈ 2.5 µg/mL)	9.2 µM (≈ 4.99 µg/mL)	9.2 µM (≈ 4.99 µg/mL)			
COC(=O)[C@H](CCCNC(=N)N)NC(=O)[C@H](N)Cc1c(C(C)(C)C)[nH]c2c(C(C)(C)C)cc(C(C)(C)C)cc12				55 µM (≈ 29.9 µg/mL)			92 µM (≈ 49.9 µg/mL)		503 µM		14 µM (≈ 7.6 µg/mL)	28 µM (≈ 15.2 µg/mL)	28 µM (≈ 15.2 µg/mL)		inactive	
CC(C)(C)c1cc(C(C)(C)C)c2[nH]c(C(C)(C)C)c(C[C@H](N)C(=O)N[C@@H](CCCNC(=N)N)C(N)=O)c2c1				57 µM (≈ 30.1 µg/mL)			57 µM (≈ 30.1 µg/mL)		578 µM		14 µM (≈ 7.39 µg/mL)	28 µM (≈ 14.8 µg/mL)	28 µM (≈ 14.8 µg/mL)		inactive	
CC(C)(C)c1cc(C(C)(C)C)c2[nH]c(C(C)(C)C)c(C[C@H](N)C(=O)N[C@@H](CCCNC(=N)N)C(=O)NCc3ccccc3)c2c1				8.1 µM (≈ 5 µg/mL)		16 µM (≈ 9.89 µg/mL)	12 µM (≈ 7.41 µg/mL)		97 µM		4 µM (≈ 2.47 µg/mL)	4 µM (≈ 2.47 µg/mL)	4 µM (≈ 2.47 µg/mL)			
CC(C)(C)c1cc(C(C)(C)C)c2[nH]c(C(C)(C)C)c(C[C@H](NC(=O)[C@@H](N)CCCCN)C(=O)N[C@@H](CCCNC(=N)N)C(N)=O)c2c1				46 µM (≈ 30.2 µg/mL)		107 µM (≈ 70.2 µg/mL)	76 µM (≈ 49.9 µg/mL)				3.8 µM (≈ 2.49 µg/mL)	23 µM (≈ 15.1 µg/mL)	23 µM (≈ 15.1 µg/mL)			Not Active
COC(=O)[C@H](CCCNC(=N)N)NC(=O)[C@@H](Cc1c(C(C)(C)C)[nH]c2c(C(C)(C)C)cc(C(C)(C)C)cc12)NC(=O)[C@@H](N)CCCNC(=N)N				21 µM (≈ 14.7 µg/mL)		72 µM (≈ 50.3 µg/mL)	57 µM (≈ 39.8 µg/mL)				3.6 µM (≈ 2.52 µg/mL)	7.2 µM (≈ 5.03 µg/mL)	7.2 µM (≈ 5.03 µg/mL)			Not Active
CC(C)(C)c1cc(C(C)(C)C)c2[nH]c(C(C)(C)C)c(C[C@H](NC(=O)[C@@H](N)CCCNC(=N)N)C(=O)N[C@@H](CCCNC(=N)N)C(=O)NCc3ccccc3)c2c1				3.2 µM (≈ 2.48 µg/mL)		9.7 µM (≈ 7.51 µg/mL)	6.5 µM (≈ 5.03 µg/mL)		116 µM		1.3 µM (≈ 1.01 µg/mL)	3.2 µM (≈ 2.48 µg/mL)	3.2 µM (≈ 2.48 µg/mL)			
CC(C)(C)c1cc(C(C)(C)C)c2[nH]c(C(C)(C)C)c(C[C@H](NC(=O)[C@@H](N)CCCNC(=N)N)C(=O)N[C@@H](CCCNC(=N)N)C(N)=O)c2c1				22 µM (≈ 15 µg/mL)		88 µM (≈ 60.2 µg/mL)	44 µM (≈ 30.1 µg/mL)				3.7 µM (≈ 2.53 µg/mL)	11 µM (≈ 7.52 µg/mL)	11 µM (≈ 7.52 µg/mL)			Not Active
